Target: CDK4/CyclinD1 (Homo sapiens, UniProt P11802)
Assay: CDK4/CyclinD1 Flashplate assay, 96-well format, biotinylated-Rb peptide substrate
Assay type: biochemical
Protocol: This is a CDK4/CyclinD1 kinase assay in a 96-well Streptavidin-coated Flashplate with a biotinylated-Rb peptide substrate.
Each point is tested in duplicate
Biotinylated-Rb: Biotin-[…]
• 1. Prepare substrate: 1 mg/ml solution made fresh in PBS. • 2. Add 100 μg per well to the Flashplate. • 3. Incubate for 2 hours at RT. • 4. From 10 mM inhibitor stocks in DMSO, make 1 mM, 300 μM, 100 μM, 30 μM and 10 μM series of dilution in DMSO. • 5. Wash the Flashplate 3 times with 300 μl PBS to remove unbound peptide substrate. • 6. Add the CDK4/CyclinD1 kinase: 70 ng per well, in a volume of 90 μl in kinase buffer (except for “no enzyme” control wells). • 7. Add 1 μl^1 per well of inhibitor to test 10 μM, 3 μM, 1 μM, 0.3 μM and 0.1 μM in final concentration per 100 μl in each well. • 8. Shake gently the Flashplate 1 minute. • 9. Incubate 30 minutes on wet ice. • 10. Initiate the reaction with 10 μl kinase buffer containing 1 μM final cold ATP and 1 μCi final ^33P-ATP per well. • 11. Shake gently the Flashplate 1 minute. • 12. Incubate 45 minutes at RT (no shaking). • 13. Wash the Flashplate 3 times with 300 μl PBS • 14. Count to detect the incorporation of ^33P-ATP by the kinase to the Rb phosphorylation site.

CDK4/CyclinD1, sequence (P11802 whole entry, species assumed): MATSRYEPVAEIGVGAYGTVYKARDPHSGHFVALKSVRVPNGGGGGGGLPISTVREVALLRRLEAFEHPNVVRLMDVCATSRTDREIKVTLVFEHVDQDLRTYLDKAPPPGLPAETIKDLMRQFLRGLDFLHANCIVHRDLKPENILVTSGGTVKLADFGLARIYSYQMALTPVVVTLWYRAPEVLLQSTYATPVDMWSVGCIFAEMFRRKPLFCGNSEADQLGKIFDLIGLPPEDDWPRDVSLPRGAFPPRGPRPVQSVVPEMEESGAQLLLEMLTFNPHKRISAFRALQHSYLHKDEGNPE
CDK4/CyclinD1, sequence (P24385 whole entry partner, species assumed): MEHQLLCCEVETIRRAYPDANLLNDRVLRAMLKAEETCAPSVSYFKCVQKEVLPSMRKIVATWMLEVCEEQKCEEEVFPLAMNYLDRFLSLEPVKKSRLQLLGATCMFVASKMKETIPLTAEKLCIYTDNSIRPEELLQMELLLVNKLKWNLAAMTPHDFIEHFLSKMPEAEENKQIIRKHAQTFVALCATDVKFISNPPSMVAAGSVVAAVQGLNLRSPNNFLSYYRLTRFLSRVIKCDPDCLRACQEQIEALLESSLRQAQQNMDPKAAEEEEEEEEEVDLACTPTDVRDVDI

CCNCCNc1ccc(S(=O)(=O)Oc2ccc3[nH]c(NC(=O)C4CC4)nc3c2)cc1 [Example 60-s, 4-(2-Ethylamino-ethylamino)-benzenesulfonic acid 2-(cyclopropanecarbonyl-amino)-1H-benzoimidazol-5-yl ester]
IC50: 8 µM

CC(C)N(CCNc1ccc(S(=O)(=O)Oc2ccc3[nH]c(NC(=O)C4CC4)nc3c2)cc1)C(C)C [Example 60-t, 4-(2-Diisopropylamino-ethylamino)-benzenesulfonic acid 2-(cyclopropanecarbonyl-amino)-1H-benzoimidazol-5-yl ester]
IC50: 2 µM

O=C(Nc1nc2cc(OS(=O)(=O)c3ccc(NC4CN5CCC4CC5)cc3)ccc2[nH]1)C1CC1 (stereo not drawn) [Example 60-v, 4-(1-Aza-bicyclo[2.2.2]-oct-3-ylamino)-benzenesulfonic acid 2-(cyclopropane-carbonyl-amino)-1H-benzoimidazol-5-yl ester]
IC50: 4.2 µM

O=C(Nc1nc2cc(OS(=O)(=O)c3ccc(NCCNc4ccccc4)cc3)ccc2[nH]1)C1CC1 [Example 60-w, 4-(2-Phenylamino-ethylamino)-benzenesulfonic acid 2-(cyclopropanecarbonyl-amino)-1H-benzoimidazol-5-yl ester]
IC50: 0.5 µM

NC(=O)[C@H]1CCCN1c1ccc(S(=O)(=O)Oc2ccc3[nH]c(NC(=O)C4CC4)nc3c2)cc1 [Example 60-y, 4-(2R-Carbamoyl-pyrrolidin-1-yl)-benzenesulfonic acid 2-(cyclopropanecarbonyl-amino)-1H-benzoimidazol-5-yl ester]
IC50: 2.5 µM

COC(=O)Nc1nc2ccc(OS(=O)(=O)c3ccc(OC(F)(F)F)cc3)cc2[nH]1 [Example 61]
IC50: 2.06 µM

COC(=O)Nc1nc2cc(OS(=O)(=O)c3c(C)noc3C)ccc2[nH]1 [Example 62-a, 3,5-Dimethyl-isoxazole-4-sulfonic acid 2-methoxycarbonylamino-1H-benzoimidazol-5-yl ester]
inhibition at 10 µM: 50%

COC(=O)Nc1nc2cc(OS(=O)(=O)c3ccccc3F)ccc2[nH]1 [Example 62-d, 2-Fluoro-benzenesulfonic acid 2-methoxycarbonylamino-1H-benzoimidazol-5-yl ester]
IC50: 1.3 µM

COC(=O)Nc1nc2cc(OS(=O)(=O)c3cccc([N+](=O)[O-])c3)ccc2[nH]1 [Example 62-l, 3-Nitro-benzenesulfonic acid 2-methoxycarbonylamino-1H-benzoimidazol-5-yl ester]
IC50: 2.5 µM

COC(=O)Nc1nc2cc(OS(=O)(=O)c3cccc(C(F)(F)F)c3)ccc2[nH]1 [Example 62-m, 3-Trifluoromethyl-benzenesulfonic acid 2-methoxycarbonylamino-1H-benzoimidazol-5-yl ester]
IC50: 1.2 µM

COC(=O)Nc1nc2cc(OS(=O)(=O)c3ccccc3C#N)ccc2[nH]1 [Example 62-n, 2-Cyano-benzenesulfonic acid 2-methoxycarbonylamino-1H-benzoimidazol-5-yl ester]
IC50: 1 µM

COC(=O)Nc1nc2cc(OS(=O)(=O)c3ccccc3C(F)(F)F)ccc2[nH]1 [Example 62-o, 2-Trifluoromethyl-benzenesulfonic acid 2-methoxycarbonylamino-1H-benzoimidazol-5-yl ester]
IC50: 1 µM

COC(=O)Nc1nc2cc(OS(=O)(=O)c3ccc(F)cc3F)ccc2[nH]1 [Example 62-p, 2,4-Difluoro-benzenesulfonic acid 2-methoxycarbonylamino-1H-benzoimidazol-5-yl ester]
IC50: 0.7 µM

COC(=O)Nc1nc2cc(OS(=O)(=O)c3cc(F)ccc3C)ccc2[nH]1 [Example 62-q, 5-Fluoro-2-methyl-benzenesulfonic acid 2-methoxycarbonylamino-1H-benzoimidazol-5-yl ester]
IC50: 1.6 µM

COC(=O)Nc1nc2cc(OS(=O)(=O)c3cccc(F)c3)ccc2[nH]1 [Example 62-r, 3-Fluoro-benzenesulfonic acid 2-methoxycarbonylamino-1H-benzoimidazol-5-yl ester]
IC50: 2.5 µM

COC(=O)Nc1nc2cc(OS(=O)(=O)c3ccc(C#N)cc3)ccc2[nH]1 [Example 62-s, 4-Cyano-benzenesulfonic acid 2-methoxycarbonylamino-1H-benzoimidazol-5-yl ester]
IC50: 1.75 µM

COC(=O)Nc1nc2ccc(OS(=O)(=O)c3ccc(OCc4ccccc4)cc3)cc2[nH]1 [Example 63, 4-benzyloxy-benzenesulfonic acid 2-methoxycarbonylamino-1H-benzoimidazol-5-yl ester]
IC50: 1.5 µM

CCOc1ccc(S(=O)(=O)Oc2ccc3nc(NC(=O)OC)[nH]c3c2)cc1 [Example 64-a, 4-Ethoxy-benzenesulfonic acid 2-methoxycarbonylamino-3H-benzoimidazol-5-yl ester]
IC50: 1 µM

COC(=O)Nc1nc2ccc(OS(=O)(=O)c3ccc(OCCN4CCOCC4)cc3)cc2[nH]1 [Example 64-b, 4-(2-Morpholin-4-yl-ethoxy)-benzenesulfonic acid 2-methoxycarbonylamino-3H-benzoimidazol-5-yl ester]
inhibition at 10 µM: 50%

COCCOc1ccc(S(=O)(=O)Oc2ccc3nc(NC(=O)OC)[nH]c3c2)cc1 [Example 64-c, 4-(2-Methoxy-ethoxy)-benzenesulfonic acid 2-methoxycarbonylamino-3H-benzoimidazol-5-yl ester]
IC50: 4.37 µM

COC(=O)Nc1nc2ccc(OS(=O)(=O)c3ccc(OCCN4CCCCC4)cc3)cc2[nH]1 [Example 64-d, 4-(2-piperidin-1-yl-ethoxy)-benzenesulfonic acid 2-methoxycarbonylamino-3H-benzoimidazol-5-yl ester]
inhibition at 10 µM: 50%

COC(=O)Nc1nc2cc(OS(=O)(=O)c3ccc(OCC(=O)N4CCN(C)CC4)cc3)ccc2[nH]1 [Example 66-a, 4-[2-(4-Methyl-piperazin-1-yl)-2-oxo-ethoxy]-benzenesulfonic acid 2-methoxycarbonylamino-1H-benzoimidazol-5-yl ester]
inhibition at 10 µM: 19%

CCN(CC)CCCNC(=O)COc1ccc(S(=O)(=O)Oc2ccc3[nH]c(NC(=O)OC)nc3c2)cc1 [Example 66-b, 4-[(3-diethylamino-propylcarbamoyl)-methoxy]-benzenesulfonic acid 2-methoxycarbonylamino-1H-benzoimidazol-5-yl ester]
IC50: 3.05 µM

COC(=O)Nc1nc2ccc(OS(=O)(=O)c3ccc(NCC4CC4)cc3)cc2[nH]1 [Example 67, 4-(cyclopropylmethyl-amino)-benzene sulfonic acid 2-methoxycarbonylamino-1H-benzoimidazol-5-yl ester]
inhibition at 10 µM: 91%

COCCNc1ccc(S(=O)(=O)Oc2ccc3[nH]c(NC(=O)OC)nc3c2)cc1 [Example 68-a, 4-(2-methoxy-ethylamino)-benzenesulfonic acid 2-methoxycarbonylamino-1H-benzoimidazol-5-yl ester]
inhibition at 10 µM: 97%

COC(=O)Nc1nc2cc(OS(=O)(=O)c3ccc(NC(C)CO)cc3)ccc2[nH]1 (stereo not drawn) [Example 68-b, 4-(2-hydroxy-1-methyl-ethylamino)-benzenesulfonic acid 2-methoxycarbonylamino-1H-benzoimidazol-5-yl ester]
inhibition at 10 µM: 78%

O=S(=O)(Oc1ccc2[nH]c(Nc3ccccc3)nc2c1)c1ccc(NC2CCCC2)cc1 [Example 70-a, 4-Cyclopentylamino-benzenesulfonic acid 2-phenylamino-1H-benzoimidazol-5-yl ester]
IC50: 1.18 µM

Reference: patent US20050014811A1, “Substituted benzimidazole compounds and their use for the treatment of cancer” (Aventis Pharma S.A., priority 2001, published 2005)
